# In ChEMBL document CHEMBL1138323 (J Med Chem, 2007):
# Experiments:
# [1] = species: Mus musculus; test: Anticonvulsant activity in Albino CF1 mouse by 6-Hz psychomotor seizure test at 32 mA current; type: functional
# [2] = species: Rattus norvegicus; test: Protective index, ratio of TD50 for Sprague-Dawley rat by rotarod test to ED50 for Sprague-Dawley rat by scMET test; type: functional
# [3] = species: Rattus norvegicus; test: Protective index, ratio of TD50 for Sprague-Dawley rat by rotarod test to ED50 for Sprague-Dawley rat by MES test; type: functional
# [4] = species: Mus musculus; test: Protective index, ratio of TD50 for Albino CF1 mouse to ED50 for Albino CF1 mouse by 6-Hz psychomotor seizure test at 32 mA current; type: functional
# [5] = Solubility in water; type: physicochemical
# [6] = Neurotoxicity in Albino CF1 mouse by rotarod test; type: toxicity, organism-based; conditions: in vivo
# [7] = species: Mus musculus; test: Protective index, ratio of TD50 for Albino CF1 mouse to ED50 for Albino CF1 mouse by 6-Hz psychomotor seizure test at 44 mA current; type: functional
# [8] = species: Mus musculus; test: Anticonvulsant activity in Albino CF1 mouse by 6-Hz psychomotor seizure test at 44 mA current; type: functional
# [9] = system: Rattus norvegicus; test: Anticonvulsant activity in Sprague-Dawley rat by subcutaneous pentylenetetrazole test; type: functional; conditions: sc
# [10] = species: Rattus norvegicus; test: Anticonvulsant activity in Sprague-Dawley rat by maximal electroshock seizure test; type: functional
# [11] = Neurotoxicity in Sprague-Dawley rat by rotarod test; type: toxicity, organism-based; conditions: in vivo
# [12] = system: Mus musculus; test: Teratogenic effect in Swiss Webster Vancouver mouse assessed as exencephaly at 261 mg/kg, ip; type: toxicity, organism-based; design: dose 261 mg/kg, route intraperitoneal; conditions: in vivo
# [13] = system: Mus musculus; test: Induction of lethality in Swiss Webster Vancouver mouse dams at 3.6 mmol/kg, ip after 24 hrs; type: organism-based; conditions: in vivo
# [14] = system: Mus musculus; test: Teratogenic effect in Swiss Webster Vancouver mouse assessed as embryo lethality at 261 mg/kg, ip; type: toxicity, organism-based; design: dose 261 mg/kg, route intraperitoneal; conditions: in vivo
# [15] = system: Mus musculus; test: Teratogenic effect in Swiss Webster Vancouver mouse assessed as embryo lethality at 167 mg/kg, ip; type: toxicity, organism-based; design: dose 167 mg/kg, route intraperitoneal; conditions: in vivo
# [16] = system: Mus musculus; test: Teratogenic effect in Swiss Webster Vancouver mouse assessed as exencephaly at 167 mg/kg, ip; type: toxicity, organism-based; design: dose 167 mg/kg, route intraperitoneal; conditions: in vivo
# [17] = system: Mus musculus; test: Teratogenic effect in Swiss Webster Vancouver mouse assessed as exencephaly at 205 mg/kg, ip; type: toxicity, organism-based; design: dose 205 mg/kg, route intraperitoneal; conditions: in vivo
# [18] = system: Mus musculus; test: Teratogenic effect in Swiss Webster Vancouver mouse assessed as embryo lethality at 205 mg/kg, ip; type: toxicity, organism-based; design: dose 205 mg/kg, route intraperitoneal; conditions: in vivo
# [19] = system: Mus musculus; test: Induction of lethality in Swiss Webster Vancouver mouse dams at 2.7 mmol/kg, ip after 24 hrs; type: organism-based; conditions: in vivo
# [20] = system: Mus musculus; test: Induction of lethality in Swiss Webster Vancouver mouse dams at 1.8 mmol/kg, ip after 24 hrs; type: organism-based; conditions: in vivo
# [21] = system: Mus musculus; test: Teratogenic effect in Swiss Webster Vancouver mouse assessed as exencephaly at 336 mg/kg, ip; type: toxicity, organism-based; design: dose 336 mg/kg, route intraperitoneal; conditions: in vivo
# [22] = system: Mus musculus; test: Teratogenic effect in Swiss Webster Vancouver mouse assessed as exencephaly at 503 mg/kg, ip; type: toxicity, organism-based; design: dose 503 mg/kg, route intraperitoneal; conditions: in vivo
# [23] = system: Mus musculus; test: Teratogenic effect in Swiss Webster Vancouver mouse assessed as embryo lethality at 503 mg/kg, ip; type: toxicity, organism-based; design: dose 503 mg/kg, route intraperitoneal; conditions: in vivo
# [24] = Teratogenic effect in Swiss Webster Vancouver mouse assessed as embryo lethality at 336 mg/kg, ip; type: toxicity, organism-based; design: dose 336 mg/kg, route intraperitoneal; conditions: in vivo, read-out: Activity
# [25] = system: Mus musculus; test: Teratogenic effect in Swiss Webster Vancouver mouse assessed as exencephaly at 520 mg/kg, ip; type: toxicity, organism-based; design: dose 520 mg/kg, route intraperitoneal; conditions: in vivo
# [26] = system: Mus musculus; test: Teratogenic effect in Swiss Webster Vancouver mouse assessed as embryo lethality at 520 mg/kg, ip; type: toxicity, organism-based; design: dose 520 mg/kg, route intraperitoneal; conditions: in vivo
solubility [5],SMILES,ED50 [1],Ratio TD50/ED50 [2],Ratio TD50/ED50 [3],Ratio TD50/ED50 [4],TD50 [6],Ratio TD50/ED50 [7],ED50 [8],ED50 [9],ED50 [10],TD50 [11],further results
270 µg/mL,CC(C)C(C(=O)NC(N)=O)C(C)C,43 mg/kg,3.5,1.7,<2.3,> 50 mg/kg,<2,49 mg/kg,,,,
,CCC[C@H](C(N)=O)C(C)C,,2.2,1.3,,,,,38 mg/kg,63 mg/kg,83 mg/kg,
,CCC[C@@H](C(N)=O)C(C)C,,3.7,1.7,,,,,22 mg/kg,47 mg/kg,82 mg/kg,
< 50 µg/mL,CCCCCCCC(=O)NC(N)=O,,1.2,1.4,,,,,> 300 mg/kg,> 300 mg/kg,> 300 mg/kg,
,CCCC(C(N)=O)C(C)C (racemic),,3.2,1.7,,,,,27 mg/kg,50 mg/kg,87 mg/kg,
,CCC[C@@H](C(=O)NC(N)=O)C(C)C,43 mg/kg,5.6,3.4,2.7,118 mg/kg,2.1,56 mg/kg,22 mg/kg,36 mg/kg,124 mg/kg,Activity [17]: 0%; Activity [21]: 15.4%; Activity [18]: 7.1%; Activity [22]: 17.5%; Activity [23]: 65.7%; mortality [24]: 54.4%
1300 µg/mL,CCCC(CCC)C(=O)O [VALPROIC ACID],,,,,,,,,,,
3700 µg/mL,CCCC(CCC)C(N)=O [VALPROMIDE],,,,,,,,,,,
,CCC[C@@H](C(=O)O)C(C)C,,,,,,,,,,,Activity [25]: 0%; Activity [26]: 4.3%
,CCCC(C(=O)O)C(C)C (racemic),149 mg/kg,,,>2,> 300 mg/kg,,,,,,Activity [25]: 0%; Activity [26]: 5.5%
,CCC[C@H](C(=O)NC(N)=O)C(C)C,46 mg/kg,3.2,6.5,<6.5,100 mg/kg,<4,75 mg/kg,37 mg/kg,18 mg/kg,118 mg/kg,Activity [17]: 0.8%; Activity [21]: 5.7%; Activity [18]: 6.8%; Activity [22]: 4.3%; Activity [23]: 40.7%; mortality [24]: 10.2%
,CC(C)C(C(N)=O)C(C)C,> 100 mg/kg,1.2,1.4,,,,> 100 mg/kg,60 mg/kg,51 mg/kg,72 mg/kg,
,CCC[C@H](C(=O)O)C(C)C,,,,,,,,,,,Activity [25]: 0%; Activity [26]: 5.8%

SMILES,solubility [5],ED50 [1],Ratio TD50/ED50 [2],Ratio TD50/ED50 [3],Ratio TD50/ED50 [4],TD50 [6],Ratio TD50/ED50 [7],ED50 [8],ED50 [9],ED50 [10],TD50 [11],further results
CCCC(CCC)C(=O)NC(N)=O,120 µg/mL,58 mg/kg,3,4.3,<1.7,> 50 mg/kg,,105 mg/kg,77 mg/kg,54 mg/kg,,Activity [12]: 13.7%; Activity [13]: Toxic; Activity [14]: 41.2%; Activity [15]: 12.9%; Activity [16]: 0.9%
CCC(C)C(CC)C(=O)NC(N)=O (configuration not stated) [CAPURIDE],280 µg/mL,,6.9,4,<4.7,50 mg/kg,<2.1,,,,97 mg/kg,Activity [17]: 2.7%; Activity [18]: 39%; Activity [19]: Toxic; Activity [20]: Toxic
CCCC(C(=O)NC(N)=O)C(C)C (racemic),130 µg/mL,42 mg/kg,2.1,5.9,<2,50 mg/kg,<1.4,,,,95 mg/kg,
